The target in one series is integrase (Human immunodeficiency virus type 1 group M subtype B, UniProt P04585). The experiment in a line: Integrase inhibition assay (microtiter plate strand transfer, substrate DNA/target DNA, anti-digoxigenin ELISA). The series is classed as biochemical. As to conditions: concentration of the compound at percent inhibition 50%, 30° C. for 1 hour, OD at 405 nm. The procedure:
The inhibitory activities against integrase of the compounds in the present invention have been determined by the assay described below.
(1) Preparation of DNA Solutions.
Substrate DNA and target DNA, which sequences were indicated below, were synthesized by Amersham Pharmacia Biotech and dissolved in KTE buffer (composition: 100 mM KCl, 1 mM EDTA, 10 mM Tris-HCl (pH 7.6)) at concentration of 2 pmol/μl and 0.5 pmol/μl, respectively. The DNA solutions were annealed with each complement by slowly cooling after heating.
(2) Calculations of the Percent Inhibitions (the IC50 Values of Test Compounds)
Streptavidin, obtained from Vector Laboratories, was dissolved in 0.1 M carbonate buffer (composition: 90 mM Na2CO3, 10 mM NaHCO3) at concentration of 40 µg/ml. After coating each well of microtiter plates (obtained from NUNC) with 50 μL of the above solution at 4° C. over night, each well was washed twice with PBS (composition: 13.7 mM NaCl, 0.27 mM KCl, 0.43 mM Na2HPO4, 0.14 mM KH2PO4) and blocked with 300 μl of 1% skim milk in PBS for 30 min. Additionally, each well was washed twice with PBS and added 50 μl of substrate DNA solution (0.04 pmol/μl) diluted to one fiftieth with NTE buffer (composition: 1M NaCl, 10 mM Tris-HCl (pH8.0), 1 mM EDTA). The microtiter plates were kept at room temperature for 30 min. Then, each well was washed twice with PBS and once with H2O.
Subsequently, in the each well prepared above were added 45 μl of the reaction buffer prepared from 12 μl of the buffer (composition: 150 mM MOPS (pH 7.2), 75 mM MnCl2, 50 mM 2-mercaptoethanol, 25% glycerol, 500 μg/ml bovine serum albumin-fraction V), 1 μl of target DNA (5 pmol/μl), and 32 μl of the distilled water. Additionally, 6 μl of either a test compound in DMSO or DMSO for positive control (PC) was mixed with the above reaction buffer, then 9 μl of an integrase solution (30 pmol) was added and mixed well. In the well of negative control (NC) was added 9 μl of the integrase dilution buffer (composition: Hepes (pH7.6), 400 mM potassium glutamate, 1 mM EDTA, 0.1% NP-40, 20% glycerol, 1 mM DTT, 4M urea).
The microtiter plates were incubated at 30° C. for 1 hour. The reaction solution was removed and each well was washed twice with PBS. Subsequently, each well of the microtiter plates was filled with 100 μl of anti-digoxigenin antibody labeled with alkaline phosphatase (Sheep Fab fragment: obtained from Boehringer) and incubated at 30° C. for 1 hour. Then, each well was washed twice with 0.05% Tween20 in PBS and once with PBS. Next, 150 μl of the Alkaline phosphatase reaction buffer (composition: 10 mM p-Nitrophenylphosphate (obtained from Vector Laboratories), 5 mM MgCl2, 100 mM NaCl, 100 mM Tris-HCl (pH 9.5)) was added in each well. The microtiter plates were incubated at 30° C. for 2 hours. The optical density (OD) at 405 nm of each well was measured and the percent inhibition was determined by the following expression. The percent inhibition (%)=100[1−{(C abs.−NC abs.)/(PC abs.−NC abs.)}] • C abs.; the OD of the well of the • NC abs.: the OD of the negative control (NC) • PC abs.: the OD of the positive control (PC)
When the percent inhibition (%) is X % at the concentration of x μg/ml and the percent inhibition (%) is Y % at the concentration of y μg/ml, one of which is more than 50% and the other is less than 50%, IC50 can be determined by the following expression. IC50(μg/ml)=x−{(X−50),(x−y)/(X−Y)}
Compound No. in the Table 1 is the same as compound No. of the above example.
On the technique in general: ELISA stands for enzyme-linked immunosorbent assay.

Consider 24 molecules from patent US9572813B2, “Antiviral agent” (SHIONOGI & CO., LTD., priority 2001, dated 2017).

Read-outs that look alike come from different tables or passages of the source.

In general, IC50 refers to the midpoint of a concentration-inhibition curve. As usually defined, the melting point is the temperature of the solid-liquid transition.

`CC(C)N1CC(C(=O)c2ccc(Cc3ccc(F)cc3)o2)=C(O)C1=O` [Compound A-7, 4-[5-(4-Fluorobenzyl)furan-2-carbonyl]-3-hydroxyl-1-isopropyl-1,5-dihydropyrrole-2-one] had a melting point of 155 to 157 °C. Besides, the IC50 at integrase (read-out: IC50 (converted)) is 2210 nM.
`CC(C)Oc1cc(F)ccc1Cc1ccc(C(=O)C2=C(O)C(=O)N(C)C2)o1` [Compound A-141-k, 4-[5-(4-Fluoro-2-isopropoxybenzyl)furan-2-carbonyl]-3-hydroxy-1-methyl-1,5-dihydropyrrole-2-one] displayed a melting point of 126 to 129 °C. Also, the IC50 at integrase (read-out: IC50 (converted)) was 1820 nM.
Taken in the same sequence, the figures for `O=c1c(O)c(-c2ccccn2)oc2cccc(OCc3ccc(F)cc3)c12` [Compound C-22, 5-[(4-fluorobenzyl)oxy]-3-hydroxy(2-pyridine-2-yl)-4H-1-benzopyrane-4-one] were 213 °C and 1320 nM.
`O=C1CCCC(C(=O)c2ccc(Cc3ccc(F)cc3)o2)=C1O` [Compound F-4, 3-[5-(4-fluorobenzyl)furan-2-carbonyl]-2-hydroxy-2-cyclohexene-1-one] yielded a melting point of 133 to 134 °C. At integrase (read-out: IC50 (converted)), the IC50 is 1810 nM.
Regarding `Cn1ncnc1-c1oc2cccc(OCc3ccc(F)cc3)c2c(=O)c1O` [Compound C-39, 5-[(4-fluorobenzyl)oxy]-3-hydroxy-2-(2-methyl-2H-[1,2,4]triazole-3-yl)-4H-1-benzopyrane-4-one], the melting point is 215 to 216 °C. In addition, at integrase (read-out: IC50 (converted)), the IC50 was 626 nM.
`Cc1cc(=O)c(O)c(C(=O)c2ccc(Cc3ccc(F)cc3)o2)o1` [Compound E-16, 2-[5-(4-fluorobenzyl)furan-2-carbonyl]-3-hydroxy-6-methylpyrane-4-one] registered a melting point of 173 to 175 °C. Further, the IC50 on integrase (read-out: IC50 (converted)) is 366 nM.
The molecule `COC(C)(C)c1cc(Cc2ccc(F)cc2)c(C(=O)C2=C(O)C(=O)N(C)C2)o1` [Compound A-158, 4-[3-(4-Fluorobenzyl)-5-(1-methoxy-1-methylethyl)furan-2-carbonyl]-3-hydroxy-1-methyl-1,5-dihydropyrrole-2-one] displayed a melting point of 144 to 145 °C. The IC50 at integrase (read-out: IC50 (converted)) was 1730 nM.
In turn, `Cc1[nH]cc(C(=O)c2ccc(Cc3ccc(F)cc3)o2)c(=O)c1O` [Compound M-6, 5-[5-(4-fluorobenzyl)furan-2-carbonyl]-3-hydroxy-2-methyl-1H-pyridine-4-one] came in with a melting point of 190 to 192 °C. Also, the IC50 at integrase (read-out: IC50 (converted)) is 8860 nM.
`O=C(c1ccc(Cc2ccc(F)cc2)o1)c1occc(=O)c1O` [Compound E-8, 2-[5-(4-fluorobenzyl)furan-2-carbonyl]-3-hydroxypyrane-4-one] had a melting point of 157 to 159 °C. The IC50 at integrase (read-out: IC50 (converted)) is 445 nM.
In the case of `CN1CC(C(=O)c2cccc(Cc3ccc(F)cc3)c2)=C(O)C1=O` [Compound A-12-a, 4-[3-(4-Fluorobenzyl)benzoyl]-3-hydroxy-1-methyl-1,5-dihydropyrrole-2-one], the melting point fell in the range of 135 to 137 °C. At integrase (read-out: IC50 (converted)), the IC50 is 1010 nM.
On to `O=C(C1=C(O)C(=O)N(C2CC2)C1)c1ccc(Cc2ccc(F)cc2)o1` [Compound A-17, 1-Cyclopropyl-4-[5-(4-fluorobenzyl)furan-2-carbonyl]-3-hydroxy-1,5-dihydropyrrole-2-one], for which the melting point was 158 to 159 °C. The IC50 at integrase (read-out: IC50 (converted)) is 2340 nM.
Taken in the same sequence, the figures for `CN1CC(c2cc(CCc3ccccc3)ncn2)=C(O)C1=O` [Compound B-6-a, 3-Hydroxy-1-methyl-4-(6-phenethylpyrimidine-4-yl)-1,5-dihydropyrrole-2-one] were 211 to 213 °C and 5420 nM.
Turning to `O=c1c(O)c(-c2nnc(Cc3ccc(F)cc3)o2)[nH]c2ccccc12` [Compound D-5, 2-[5-(4-fluorobenzyl)-[1,3,4]oxadiazole-2-yl]-3-hydroxy-1H-quinoline-4-one], the melting point is over 300 °C. Besides, the IC50 on integrase (read-out: IC50 (converted)) is 1330 nM.
As to `CN1CC(c2ncc(OCc3ccc(F)cc3)cn2)=C(O)C1=O` [Compound B-68, 4-[5-(4-fluorobenzyloxy)pyrimidine-2-yl]-3-hydroxy-1-methyl-1,5-dihydropyrrole-2-one], the melting point lay in the range of 185 to 187 °C. Besides, on integrase (read-out: IC50 (converted)), the IC50 is 698 nM.
Molecule `CN1CC(c2cc(OCc3ccccc3)ncn2)=C(O)C1=O` [Compound B-12, 4-(6-Benzyloxypyrimidine-4-yl)-3-hydroxy-1-methyl-1,5-dihydropyrrole-2-one] showed a melting point of 203 to 204 °C. Also, at integrase (read-out: IC50 (converted)), the IC50 was 975 nM.
In the case of `Cn1ccc(-c2nnc(Cc3ccc(F)cc3)o2)c(O)c1=O` [Compound K-4, 4-[5-(4-fluorobenzyl)-[1,3,4]oxadiazole-2-yl]-3-hydroxy-1-methyl-1H-pyridine-2-one], the melting point was 216 to 218 °C. Moreover, the IC50 at integrase (read-out: IC50 (converted)) was 1890 nM.
Molecule “3-hydroxy-1-isopropyl-4-(6-phenethylpyrimidine-4-yl)-1,5-dihydropyrrole-2-one [Compound H-7]” had an IC50 against integrase of 0.68 µg/mL.
Consider `O=C1C(O)=C(c2cc(CCc3ccccc3)ncn2)CN1C1CCCCC1` [Compound B-6-d, 1-Cyclohexyl-3-hydroxy-4-(6-phenethylpyrimidine-4-yl)-1,5-dihydropyrrole-2-one], for which the melting point was 248 to 250 °C. The IC50 on integrase (read-out: IC50 (converted)) is 6600 nM.
On to `Cn1ccc(C(=O)c2ccc(Cc3ccc(F)cc3)o2)c(O)c1=O` [Compound J-4, 4-[5-(4-fluorobenzyl)furan-2-carbonyl]-3-hydroxy-1-methyl-1H-pyridine-2-one], for which the melting point fell in the range of 145 to 147 °C. For the same molecule, the IC50 on integrase (read-out: IC50 (converted)) is 794 nM.
For `CN1CC(C(=O)c2occc2Cc2ccc(F)cc2)=C(O)C1=O` [Compound A-50, 4-[3-(4-Fluorobenzyl)furan-2-carbonyl]-3-hydroxy-1-methyl-1,5-dihydropyrrole-2-one] the same measures were 208 to 210 °C and 507 nM.
For the molecule `O=C(c1ccc(Cc2ccc(F)cc2)o1)c1[nH]ccc(=O)c1O` [Compound L-4, 2-[5-(4-fluorobenzyl)furan-2-carbonyl]-3-hydroxy-1H-pyridine-4-one], the IC50 on integrase (read-out: IC50 (converted)) was 1560 nM.
In the case of `O=c1c(O)c(-c2nnc(Cc3ccc(F)cc3)o2)oc2ccccc12` [Compound C-26, 2-[5-(4-fluorobenzyl)-[1,3,4]-oxadiazole-2-yl]-3-hydroxy-4H-1-benzopyrane-4-one], the IC50 at integrase (read-out: IC50 (converted)) was 1060 nM.
As to `CCN1CCC(C(=O)c2ccc(Cc3ccc(F)cc3)o2)=C(O)C1=O` [Compound I-4, 1-ethyl-4-[5-(4-fluorobenzyl)furan-2-carbonyl]-3-hydroxy-5,6-dihydro-1H-pyridine-2-one], the IC50 on integrase (read-out: IC50 (converted)) is 1460 nM.
`CN1CC(c2ccc(Cc3ccc(F)cc3)cn2)=C(O)C1=O` [Compound B-29, 4-[5-(4-Fluorobenzyl)-pyridine-2-yl]-3-hydroxy-1-methyl-1,5-dihydropyrrole-2-one] had a melting point of 204 to 206 °C. The IC50 on integrase (read-out: IC50 (converted)) is 402 nM.
